Assays:
[1] = Measurement of acetal kinetics (rate of acetal hydrolysis in buffered solutions, by absorbance); assay type: physicochemical
Source text: To illustrate the rate of cleavage of several example ortho carboxy phenol derived acetals, we synthesized the molecules 1-3 (shown in FIG. 2) and measured the rates of acetal hydrolysis for each at pH 5.2-7.3. • Acetal 1. R′, R=alkyl; and R1, R2, R3, R4=hydrogen • Acetal 2. R′, R=alkyl; R1, R4=hydrogen; R2=carboxyl (carbon-containing group); R3=hydroxyl (heteroatom) • Acetal 3. R′=alkyl; R, R2, R3, R4=hydrogen; and R1=carboxyl (carbon-containing group)
To determine the rate of acetal hydrolysis, compounds 1-3 were added to buffered solutions (pH 7-8 with 5 mM HEPES, or pH 5-7 with 5 mM acetate) at various pH values and the absorbance of the solution was measured as a function of time (λ=302 nm for 1 and 2 and 310 nm for 3). The rate constant was determined by determining the slope of the line derived from plotting ln[1-((A∞-At)/(A∞-AO))] as a function of time t, where A∞ is absorbance after>3 hours of hydrolysis, At is the absorbance at time t, and AO is the initial absorbance. The half-life of the hydrolysis equals ln[2] divided by the rate constant.

[2] = system: Hepa mouse hepatoma cells; assay: DNA transfection with crosslinked pCIluc/DW921 complexes, luciferase expression; assay type: cell-based; details: pCIluc 10 μg/mL, DW921 100 μg/mL, 48 h, average of two wells
Procedure: To a solution of plasmid DNA pCIluc (10 μg/mL, 0.075 mM in phosphate, 2.6 μg/μL pCIluc; prepared according to Danko et al. 1997) in 0.5 mL of 150 mM NaCl and 5 mM TAPS pH 9 was added 100 μg/mL DW921. The complexes were then reacted with glutaraldehyde, periodate oxidized phenyl glucoside (another crosslinker containing a labile bond), or periodate oxidized salicylic galactoside at 1, 2, 4, 8, or 16 μg/mL. The complexes were then added (200 μL) to wells containing Hepa mouse hepatoma cells in Dulbecco's modified Eagle's Media containing 10% fetal bovine serum. The cells were allowed to incubate for 48 h. The cells were then harvested and assayed for luciferase expression as previously reported. The amount of transfection was reported in relative light units and is the average transfection for two separate wells of cells.

CC(C)[C@@H]1CC[C@@H](C)C[C@H]1OCOc1c(C(=O)O)cccc1C(=O)O [Acetal 3]
half-life (minutes) of acetal hydrolysis ([1]; pH 5.2): 0.22 min | half-life (minutes) of acetal hydrolysis ([1]; pH 6.5): 4.7 min

CC(C)CCOC(C)Oc1ccccc1C(=O)O (centres unmarked) [Acetal 1]
half-life (minutes) of acetal hydrolysis ([1]; pH 7.3): 1.0 min

O=CCCCC=O [glutaraldehyde]
Relative Light Units ([2]; 1 μg/mL dialdehyde crosslinker): 915 Relative Light Units | Relative Light Units ([2]; 2 μg/mL dialdehyde crosslinker): 620 Relative Light Units | Relative Light Units ([2]; 4 μg/mL dialdehyde crosslinker): 1,400 Relative Light Units | Relative Light Units ([2]; 8 μg/mL dialdehyde crosslinker): 590 Relative Light Units | Relative Light Units ([2]; 16 μg/mL dialdehyde crosslinker): 565 Relative Light Units

— patent US20080132689A1, “Labile Linkage for Compound Delivery to a Cell” (priority 2003, published 2008)
